Read-outs that look alike come from different tables or passages of the source.
Legend:
[1] = tested on: pSer473 of PKB/Akt in SKOV3 cells; assay: In Cell Western cellular PI3K signaling and IC50 determination; assay type: cell-based; conditions: Homo sapiens
Protocol: Protein phosphorylation was detected as follows: pSer473 of PKB/Akt with rabbit polyclonal antibody from Cell Signaling Technology (CST) (#4058) by In-Cell Western assays, where 1.2×10^4 SKOV3 cells/well in 96-well plates were plated (Cell Carrier, PerkinElmer) for 24 hours (37° C., 5% CO2), as described in Ref. ^25.

[2] = Intrinsic reactivity of the inhibitors (kchem) with βME measured with HPLC; assay type: physicochemical; conditions: 1 mM inhibitor + 600 mM βME, n = 3
p110α (PI3Kα) = p110α (PI3Kα) (Homo sapiens, UniProt P42336); assay: Determination of kinetic constants (kinact, Ki) for p110α by LanthaScreen Technology; assay type: binding; conditions: for kinact: maximum potential rate of covalent bond formation, read-out: kinact PI3Kα; for kinact/KI: read-out: kinact/Ki PI3Kα
Chain of p110α (PI3Kα) (P42336 whole entry): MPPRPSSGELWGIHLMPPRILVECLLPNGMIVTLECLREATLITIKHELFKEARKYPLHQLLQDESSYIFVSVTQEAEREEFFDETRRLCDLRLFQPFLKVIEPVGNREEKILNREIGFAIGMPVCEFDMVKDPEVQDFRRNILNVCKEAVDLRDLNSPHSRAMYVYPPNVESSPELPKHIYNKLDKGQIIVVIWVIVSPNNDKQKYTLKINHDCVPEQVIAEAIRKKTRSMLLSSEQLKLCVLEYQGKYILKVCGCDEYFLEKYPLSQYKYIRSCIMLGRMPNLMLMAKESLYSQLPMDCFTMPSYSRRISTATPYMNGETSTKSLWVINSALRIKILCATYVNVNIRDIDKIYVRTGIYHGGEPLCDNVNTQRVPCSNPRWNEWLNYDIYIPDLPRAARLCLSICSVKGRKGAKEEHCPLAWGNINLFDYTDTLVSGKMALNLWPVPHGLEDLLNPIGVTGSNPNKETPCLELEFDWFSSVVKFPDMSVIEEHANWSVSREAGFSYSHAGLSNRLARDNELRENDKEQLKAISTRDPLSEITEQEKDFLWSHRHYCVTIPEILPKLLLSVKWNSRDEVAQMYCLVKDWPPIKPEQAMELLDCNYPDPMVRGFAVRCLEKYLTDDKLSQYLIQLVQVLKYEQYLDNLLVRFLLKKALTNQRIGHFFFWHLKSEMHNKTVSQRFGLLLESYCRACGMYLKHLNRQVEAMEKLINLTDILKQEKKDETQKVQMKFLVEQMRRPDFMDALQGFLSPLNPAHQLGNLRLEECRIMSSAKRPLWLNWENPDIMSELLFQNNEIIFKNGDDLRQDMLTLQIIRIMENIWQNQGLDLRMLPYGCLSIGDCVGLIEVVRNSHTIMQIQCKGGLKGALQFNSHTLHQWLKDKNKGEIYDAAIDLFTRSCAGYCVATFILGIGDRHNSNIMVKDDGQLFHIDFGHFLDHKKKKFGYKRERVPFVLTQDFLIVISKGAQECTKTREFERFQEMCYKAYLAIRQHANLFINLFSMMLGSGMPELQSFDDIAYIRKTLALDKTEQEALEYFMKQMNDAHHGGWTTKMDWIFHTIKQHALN
Chain of p110α (PI3Kα) (P27986 whole entry partner): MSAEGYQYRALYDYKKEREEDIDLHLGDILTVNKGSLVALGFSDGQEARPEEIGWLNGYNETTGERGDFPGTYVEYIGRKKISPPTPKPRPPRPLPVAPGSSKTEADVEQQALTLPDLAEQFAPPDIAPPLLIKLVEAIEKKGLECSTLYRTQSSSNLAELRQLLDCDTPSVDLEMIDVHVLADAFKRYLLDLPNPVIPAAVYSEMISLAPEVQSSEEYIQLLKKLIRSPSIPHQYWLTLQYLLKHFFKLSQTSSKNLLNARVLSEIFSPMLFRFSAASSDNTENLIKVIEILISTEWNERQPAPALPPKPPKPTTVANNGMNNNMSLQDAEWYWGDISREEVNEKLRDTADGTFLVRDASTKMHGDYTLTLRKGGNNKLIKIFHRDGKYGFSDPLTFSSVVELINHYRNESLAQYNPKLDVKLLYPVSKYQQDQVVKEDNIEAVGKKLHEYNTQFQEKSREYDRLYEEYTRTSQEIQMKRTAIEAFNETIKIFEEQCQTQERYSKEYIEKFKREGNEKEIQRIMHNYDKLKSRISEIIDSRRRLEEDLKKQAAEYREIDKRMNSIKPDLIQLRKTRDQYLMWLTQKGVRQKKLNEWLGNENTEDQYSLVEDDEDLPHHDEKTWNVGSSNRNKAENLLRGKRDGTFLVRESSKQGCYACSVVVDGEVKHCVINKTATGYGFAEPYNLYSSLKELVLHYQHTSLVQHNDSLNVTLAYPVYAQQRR
Protocol: Maximum potential rate of covalent bond formation (kinact) and dissociation constant of the first reversible binding (Ki) of compounds for p110α were determined by LanthaScreen Technology (Life Technologies). The calculation of kinetic parameters was carried out through global fitting for numerical integration by using KinTek Global Kinetic Explorer modelling software^26-31.

[3] = SK-OV-3, SKOV3 cells, 2 or 3 independent measurements, read-out: IC50 pPKB (S473) SKOV3
[4] = dissociation constant of the first reversible binding, global fitting with KinTek, read-out: Ki PI3Kα
[5] = SK-OV-3, read-out: IC50 pPKB (S473) SKOV3

Structure (SMILES) | IC50 [1, 3] [nM] | kchem (intrinsic reactivity of the inhibitors) [2] | Ki (p110α (PI3Kα); [4]) [nM] | kinact (p110α (PI3Kα); global fitting with KinTek) [s⁻¹] | kinact/KI (p110α (PI3Kα)) [M⁻¹ s⁻¹] | Ki (p110α (PI3Kα); Ki value determined after 60 min of drug incubation with PI3Kα, 2 independent measurements, read-out: Ki PI3Kα (footnote d)) [nM] | IC50 [1, 5] [nM]
C/C=C/C(=O)CCCCC(=O)N1CCN(c2nc(-c3cnc(N)nc3C(F)F)nc(N3CCOCC3)n2)CC1 [Compound 2, (E)-1-(4-(4-(2-amino-4-(difluoromethyl)pyrimidin-5-yl)-6-morpholino-1,3,5-triazin-2-yl)piperazin-1-yl)non-7-ene-1,6-dione] | 46.9 | 0.0857 M⁻¹ s⁻¹ | 5.76 | 0.00392 | 693000 | – | –
CC(C)=CC(=O)CCCCC(=O)N1CCN(c2nc(-c3cnc(N)nc3C(F)F)nc(N3CCOCC3)n2)CC1 [Compound 5, 1-(4-(4-(2-amino-4-(difluoromethyl)pyrimidin-5-yl)-6-morpholino-1,3,5-triazin-2-yl)piperazin-1-yl)-8-methylnon-7-ene-1,6-dione] | 52.8 | 0.00022 M⁻¹ s⁻¹ | 10.1 | 0.000187 | 18700 | – | –
CC(C)=CC(=O)N(C)CCCC(=O)N1CCN(c2nc(-c3cnc(N)nc3C(F)F)nc(N3CCOCC3)n2)CC1 [Compound 11, N-(4-(4-(4-(2-amino-4-(difluoromethyl)pyrimidin-5-yl)-6-morpholino-1,3,5-triazin-2-yl)piperazin-1-yl)-4-oxobutyl)-N,3-dimethylbut-2-enamide] | – | <<1.00 × 10^−7 M^−1 · s^−1 | – | – | – | 6.95 | –
C=CC(=O)NCCCC(=O)N1CCN(c2nc(-c3cnc(N)nc3C(F)F)nc(N3CCOCC3)n2)CC1 [Compound 13, N-(4-(4-(4-(2-amino-4-(difluoromethyl)pyrimidin-5-yl)-6-morpholino-1,3,5-triazin-2-yl)piperazin-1-yl)-4-oxobutyl)acrylamide] | – | 0.000138 M⁻¹ s⁻¹ | 5.36 | 7.6e-05 | 14200 | – | –
C/C=C/C(=O)CCC(=O)N1CCN(c2nc(-c3cnc(N)nc3C(F)F)nc(N3CCOCC3)n2)CC1 [Compound 19, (E)-1-(4-(4-(2-amino-4-(difluoromethyl)pyrimidin-5-yl)-6-morpholino-1,3,5-triazin-2-yl)piperazin-1-yl)hept-5-ene-1,4-dione] | 20 | 0.0484 M⁻¹ s⁻¹ | 1.51 | 0.0002 | 130000 | – | –
C/C=C/C(=O)CCCC(=O)N1CCN(c2nc(-c3cnc(N)nc3C(F)F)nc(N3CCOCC3)n2)CC1 [Compound 20, (E)-1-(4-(4-(2-amino-4-(difluoromethyl)pyrimidin-5-yl)-6-morpholino-1,3,5-triazin-2-yl)piperazin-1-yl)oct-6-ene-1,5-dione] | 38.8 | 0.0806 M⁻¹ s⁻¹ | 6.69 | 0.00121 | 183000 | – | –
C/C=C/C(=O)CCCCCC(=O)N1CCN(c2nc(-c3cnc(N)nc3C(F)F)nc(N3CCOCC3)n2)CC1 [Compound 21, (E)-1-(4-(4-(2-amino-4-(difluoromethyl)pyrimidin-5-yl)-6-morpholino-1,3,5-triazin-2-yl)piperazin-1-yl)dec-8-ene-1,7-dione] | 44.5 | 0.0632 M⁻¹ s⁻¹ | 11.7 | 0.016 | 1.27e+06 | – | –
CC(C)=CC(=O)CCC(=O)N1CCN(c2nc(-c3cnc(N)nc3C(F)F)nc(N3CCOCC3)n2)CC1 [Compound 22, 1-(4-(4-(2-amino-4-(difluoromethyl)pyrimidin-5-yl)-6-morpholino-1,3,5-triazin-2-yl)piperazin-1-yl)-6-methylhept-5-ene-1,4-dione] | – | 0.000188 M⁻¹ s⁻¹ | – | 1.13e-05 | – | – | –
CC(C)=CC(=O)CCCC(=O)N1CCN(c2nc(-c3cnc(N)nc3C(F)F)nc(N3CCOCC3)n2)CC1 [Compound 23, 1-(4-(4-(2-amino-4-(difluoromethyl)pyrimidin-5-yl)-6-morpholino-1,3,5-triazin-2-yl)piperazin-1-yl)-7-methyloct-6-ene-1,5-dione] | – | 0.000224 M⁻¹ s⁻¹ | 8.06 | 2.56e-05 | 3210 | – | –
CC(C)=CC(=O)CCCCCC(=O)N1CCN(c2nc(-c3cnc(N)nc3C(F)F)nc(N3CCOCC3)n2)CC1 [Compound 24, 1-(4-(4-(2-amino-4-(difluoromethyl)pyrimidin-5-yl)-6-morpholino-1,3,5-triazin-2-yl)piperazin-1-yl)-9-methyldec-8-ene-1,7-dione] | 89.2 | 0.000173 M⁻¹ s⁻¹ | – | – | – | – | –
C=CC(=O)N1CCC(C(=O)N2CCN(c3nc(-c4cnc(N)nc4C(F)F)nc(N4CCOCC4)n3)CC2)CC1 [Compound 28, 1-(4-(4-(4-(2-amino-4-(difluoromethyl)pyrimidin-5-yl)-6-morpholino-1,3,5-triazin-2-yl)piperazine-1-carbonyl)piperidin-1-yl)prop-2-en-1-one] | 51 | 0.00041 M⁻¹ s⁻¹ | 10.8 | 5.77e-05 | 5390 | – | –
C=CC(=O)N1CCC(CC(=O)N2CCN(c3nc(-c4cnc(N)nc4C(F)F)nc(N4CCOCC4)n3)CC2)CC1 [Compound 35, 1-(4-(2-(4-(4-(2-amino-4-(difluoromethyl)pyrimidin-5-yl)-6-morpholino-1,3,5-triazin-2-yl)piperazin-1-yl)-2-oxoethyl)piperidin-1-yl)prop-2-en-1-one] | 47 | 0.000249 M⁻¹ s⁻¹ | 10.8 | 9.84e-05 | 9290 | – | –
C=CC(=O)N1CCC(CCC(=O)N2CCN(c3nc(-c4cnc(N)nc4C(F)F)nc(N4CCOCC4)n3)CC2)CC1 [Compound 40, 1-(4-(3-(4-(4-(2-amino-4-(difluoromethyl)pyrimidin-5-yl)-6-morpholino-1,3,5-triazin-2-yl)piperazin-1-yl)-3-oxopropyl)piperidin-1-yl)prop-2-en-1-one] | 48 | 0.000307 M⁻¹ s⁻¹ | 8.56 | 0.000292 | 34300 | – | –
C=CC(=O)N1CCC(C(=O)NCC(=O)N2CCN(c3nc(-c4cnc(N)nc4C(F)F)nc(N4CCOCC4)n3)CC2)CC1 [Compound 43, 1-acryloyl-N-(2-(4-(4-(2-amino-4-(difluoromethyl)pyrimidin-5-yl)-6-morpholino-1,3,5-triazin-2-yl)piperazin-1-yl)-2-oxoethyl)piperidine-4-carboxamide] | – | 0.00037 M⁻¹ s⁻¹ | – | – | – | – | 82
C=CC(=O)N1CCC(C(=O)N(C)CC(=O)N2CCN(c3nc(-c4cnc(N)nc4C(F)F)nc(N4CCOCC4)n3)CC2)CC1 [Compound 54, 1-acryloyl-N-(2-(4-(4-(2-amino-4-(difluoromethyl)pyrimidin-5-yl)-6-morpholino-1,3,5-triazin-2-yl)piperazin-1-yl)-2-oxoethyl)-N-methylpiperidine-4-carboxamide] | – | 0.000354 M⁻¹ s⁻¹ | – | – | – | – | 86

Source: patent publication US20240217960A1, “TRIAZINE DERIVATIVE AS COVALENT INHIBITORS OF PI3K” (UNIVERSITÄT BASEL, priority 2021, published 2024)
